Columns and labels:
Test in all cases: relative viability (nuclei count vs DMSO), 5 days (fraction); higher = more cells survive
[1] = system: NCI-H1792
Summary of the method: (§1)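 Relative viability equals treated-well nuclei counts divided by vehicle-well nuclei counts. Counts came from 4× images of lung cancer cell lines grown in 1536-well plates for 5 days after pin-tool dosing on the day after seeding. Dosing used one drug alone or a fixed anchor-drug dose plus five library-drug doses (not always all listed) in √10 steps, and values are medians of duplicate plates.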

[2] = system: NCI-H2405
Summary of the method: as §1

[3] = system: HCC-44
Summary of the method: as §1

[4] = system: UMC-11
Summary of the method: as §1

[5] = system: NCI-H838
Summary of the method: as §1

[6] = system: NCI-H520
Summary of the method: as §1

[7] = system: LC-2-ad
Summary of the method: as §1

[8] = system: CAL-12T
Summary of the method: as §1

[9] = system: NCI-H1395
Summary of the method: as §1

[10] = system: LCLC-97TM1
Summary of the method: as §1

[11] = system: SW 1573
Summary of the method: as §1

[12] = system: NCI-H1734
Summary of the method: as §1

[13] = system: EPLC-272H
Summary of the method: as §1

[14] = system: COR-L 105
Summary of the method: as §1

[15] = system: NCI-H1975
Summary of the method: as §1

[16] = system: HCC-15
Summary of the method: as §1

[17] = system: NCI-H2347
Summary of the method: as §1

[18] = system: NCI-H2023
Summary of the method: as §1

[19] = system: NCI-H1915
Summary of the method: as §1

[20] = system: A-427
Summary of the method: as §1

Cc1cn(-c2cc(NC(=O)c3ccc(C)c(Nc4nccc(-c5cccnc5)n4)c3)cc(C(F)(F)F)c2)cn1 [Nilotinib] + CC1(C)CCC(c2ccc(Cl)cc2)=C(CN2CCN(c3ccc(C(=O)NS(=O)(=O)c4ccc(N[C@H](CCN5CCOCC5)CSc5ccccc5)c(S(=O)(=O)C(F)(F)F)c4)cc3)CC2)C1 [Navitoclax] (partner 0.5 µM)
relative viability ([1]; first compound 0.001 µM): 0.523 | relative viability ([1]; first compound 0.01 µM): 0.907 | relative viability ([1]; first compound 0.1 µM): 0.794 | relative viability ([2]; first compound 0.001 µM): 0.733 | relative viability ([2]; first compound 0.003162 µM): 0.761 | relative viability ([2]; first compound 0.01 µM): 0.764 | relative viability ([2]; first compound 0.03162 µM): 0.596 | relative viability ([2]; first compound 0.1 µM): 0.439 | relative viability ([3]; first compound 0.001 µM): 0.845 | relative viability ([3]; first compound 0.003162 µM): 1.22 | relative viability ([3]; first compound 0.01 µM): 1.39 | relative viability ([3]; first compound 0.03162 µM): 0.844 | relative viability ([3]; first compound 0.1 µM): 0.999 | relative viability ([4]; first compound 0.001 µM): 0.303 | relative viability ([4]; first compound 0.003162 µM): 0.303 | relative viability ([4]; first compound 0.01 µM): 0.317 | relative viability ([4]; first compound 0.1 µM): 0.301 | relative viability ([5]; first compound 0.001 µM): 1.09 | relative viability ([5]; first compound 0.003162 µM): 1.42 | relative viability ([5]; first compound 0.01 µM): 1.54 | relative viability ([5]; first compound 0.03162 µM): 1.05 | relative viability ([5]; first compound 0.1 µM): 1.15 | relative viability ([6]; first compound 0.001 µM): 1.13 | relative viability ([6]; first compound 0.01 µM): 1.11 | relative viability ([6]; first compound 0.03162 µM): 0.96 | relative viability ([6]; first compound 0.1 µM): 1.15 | relative viability ([7]; first compound 0.001 µM): 0.376 | relative viability ([7]; first compound 0.003162 µM): 0.396 | relative viability ([7]; first compound 0.01 µM): 0.467 | relative viability ([7]; first compound 0.03162 µM): 0.339 | relative viability ([7]; first compound 0.1 µM): 0.365 | relative viability ([8]; first compound 0.003162 µM): 1.17 | relative viability ([8]; first compound 0.01 µM): 1.17 | relative viability ([8]; first compound 0.03162 µM): 1.02 | relative viability ([8]; first compound 0.1 µM): 0.956 | relative viability ([9]; first compound 0.001 µM): 1.03 | relative viability ([9]; first compound 0.003162 µM): 0.815 | relative viability ([9]; first compound 0.01 µM): 1.1 | relative viability ([9]; first compound 0.03162 µM): 1.11 | relative viability ([9]; first compound 0.1 µM): 1.05 | relative viability ([10]; first compound 0.001 µM): 0.322 | relative viability ([10]; first compound 0.003162 µM): 0.425 | relative viability ([10]; first compound 0.01 µM): 0.478 | relative viability ([10]; first compound 0.03162 µM): 0.445 | relative viability ([10]; first compound 0.1 µM): 0.379 | relative viability ([11]; first compound 0.001 µM): 1.05 | relative viability ([11]; first compound 0.003162 µM): 1.23 | relative viability ([11]; first compound 0.01 µM): 1.14 | relative viability ([11]; first compound 0.03162 µM): 0.792 | relative viability ([11]; first compound 0.1 µM): 1.01 | relative viability ([12]; first compound 0.001 µM): 0.704 | relative viability ([12]; first compound 0.003162 µM): 1.03 | relative viability ([12]; first compound 0.01 µM): 1.06 | relative viability ([12]; first compound 0.03162 µM): 0.434 | relative viability ([12]; first compound 0.1 µM): 0.543 | relative viability ([13]; first compound 0.001 µM): 1.1 | relative viability ([13]; first compound 0.003162 µM): 1.32 | relative viability ([13]; first compound 0.01 µM): 1.5 | relative viability ([13]; first compound 0.03162 µM): 0.804 | relative viability ([13]; first compound 0.1 µM): 1.28 | relative viability ([14]; first compound 0.001 µM): 0.709 | relative viability ([14]; first compound 0.01 µM): 0.696 | relative viability ([14]; first compound 0.03162 µM): 0.644 | relative viability ([14]; first compound 0.1 µM): 0.848 | relative viability ([15]; first compound 0.001 µM): 0.904 | relative viability ([15]; first compound 0.003162 µM): 1.22 | relative viability ([15]; first compound 0.01 µM): 1.34 | relative viability ([15]; first compound 0.03162 µM): 0.694 | relative viability ([15]; first compound 0.1 µM): 0.976 | relative viability ([16]; first compound 0.001 µM): 0.631 | relative viability ([16]; first compound 0.003162 µM): 0.824 | relative viability ([16]; first compound 0.01 µM): 0.716 | relative viability ([16]; first compound 0.03162 µM): 0.511 | relative viability ([16]; first compound 0.1 µM): 0.57 | relative viability ([17]; first compound 0.001 µM): 0.81 | relative viability ([17]; first compound 0.003162 µM): 0.959 | relative viability ([17]; first compound 0.01 µM): 1.05 | relative viability ([17]; first compound 0.03162 µM): 0.662 | relative viability ([17]; first compound 0.1 µM): 0.695 | relative viability ([18]; first compound 0.001 µM): 0.914 | relative viability ([18]; first compound 0.003162 µM): 1.13 | relative viability ([18]; first compound 0.01 µM): 1.32 | relative viability ([18]; first compound 0.03162 µM): 1.02 | relative viability ([18]; first compound 0.1 µM): 1.02 | relative viability ([19]; first compound 0.001 µM): 0.764 | relative viability ([19]; first compound 0.003162 µM): 0.813 | relative viability ([19]; first compound 0.01 µM): 0.807 | relative viability ([19]; first compound 0.03162 µM): 0.751 | relative viability ([19]; first compound 0.1 µM): 0.781 | relative viability ([20]; first compound 0.001 µM): 0.984 | relative viability ([20]; first compound 0.01 µM): 0.998 | relative viability ([20]; first compound 0.03162 µM): 0.908 | relative viability ([20]; first compound 0.1 µM): 0.923

CN1CCN(CCOc2cc(OC3CCOCC3)c3c(Nc4c(Cl)ccc5c4OCO5)ncnc3c2)CC1 [Saracatinib] + CC1(C)CCC(c2ccc(Cl)cc2)=C(CN2CCN(c3ccc(C(=O)NS(=O)(=O)c4ccc(N[C@H](CCN5CCOCC5)CSc5ccccc5)c(S(=O)(=O)C(F)(F)F)c4)cc3)CC2)C1 [Navitoclax] (partner 0.5 µM)
relative viability ([1]; first compound 0.02 µM): 0.635 | relative viability ([1]; first compound 0.2 µM): 0.489 | relative viability ([1]; first compound 0.6325 µM): 0.723 | relative viability ([1]; first compound 2 µM): 0.583 | relative viability ([2]; first compound 0.02 µM): 0.816 | relative viability ([2]; first compound 0.2 µM): 0.874 | relative viability ([2]; first compound 0.6325 µM): 0.401 | relative viability ([2]; first compound 2 µM): 0.316 | relative viability ([3]; first compound 0.02 µM): 1.06 | relative viability ([3]; first compound 0.2 µM): 0.829 | relative viability ([3]; first compound 0.6325 µM): 1.08 | relative viability ([3]; first compound 2 µM): 1.04 | relative viability ([4]; first compound 0.02 µM): 0.318 | relative viability ([4]; first compound 0.6325 µM): 0.295 | relative viability ([4]; first compound 2 µM): 0.267 | relative viability ([5]; first compound 0.02 µM): 1.15 | relative viability ([5]; first compound 0.2 µM): 1.02 | relative viability ([5]; first compound 0.6325 µM): 1.03 | relative viability ([5]; first compound 2 µM): 0.918 | relative viability ([6]; first compound 0.02 µM): 1.1 | relative viability ([6]; first compound 0.2 µM): 0.993 | relative viability ([6]; first compound 0.6325 µM): 0.753 | relative viability ([6]; first compound 2 µM): 0.583 | relative viability ([7]; first compound 0.02 µM): 0.453 | relative viability ([7]; first compound 0.6325 µM): 0.448 | relative viability ([7]; first compound 2 µM): 0.348 | relative viability ([8]; first compound 0.02 µM): 1.17 | relative viability ([8]; first compound 0.2 µM): 1.29 | relative viability ([8]; first compound 0.6325 µM): 1.42 | relative viability ([8]; first compound 2 µM): 1.27 | relative viability ([9]; first compound 0.02 µM): 1.37 | relative viability ([9]; first compound 0.2 µM): 0.902 | relative viability ([9]; first compound 0.6325 µM): 1.09 | relative viability ([9]; first compound 2 µM): 1.08 | relative viability ([10]; first compound 0.02 µM): 0.422 | relative viability ([10]; first compound 0.2 µM): 0.356 | relative viability ([10]; first compound 0.6325 µM): 0.501 | relative viability ([10]; first compound 2 µM): 0.46 | relative viability ([11]; first compound 0.02 µM): 0.958 | relative viability ([11]; first compound 0.2 µM): 0.969 | relative viability ([11]; first compound 0.6325 µM): 0.919 | relative viability ([11]; first compound 2 µM): 0.838 | relative viability ([12]; first compound 0.02 µM): 0.854 | relative viability ([12]; first compound 0.6325 µM): 0.767 | relative viability ([12]; first compound 2 µM): 0.697 | relative viability ([13]; first compound 0.02 µM): 1.19 | relative viability ([13]; first compound 0.2 µM): 0.976 | relative viability ([13]; first compound 0.6325 µM): 1.19 | relative viability ([13]; first compound 2 µM): 0.999 | relative viability ([14]; first compound 0.02 µM): 0.795 | relative viability ([14]; first compound 0.2 µM): 0.764 | relative viability ([14]; first compound 0.6325 µM): 0.578 | relative viability ([14]; first compound 2 µM): 0.474 | relative viability ([15]; first compound 0.02 µM): 1.17 | relative viability ([15]; first compound 0.6325 µM): 1.06 | relative viability ([15]; first compound 2 µM): 0.749 | relative viability ([16]; first compound 0.02 µM): 0.655 | relative viability ([16]; first compound 0.2 µM): 0.545 | relative viability ([16]; first compound 0.6325 µM): 0.65 | relative viability ([16]; first compound 2 µM): 0.558 | relative viability ([17]; first compound 0.02 µM): 0.725 | relative viability ([17]; first compound 0.2 µM): 0.686 | relative viability ([17]; first compound 0.6325 µM): 0.862 | relative viability ([17]; first compound 2 µM): 0.599 | relative viability ([18]; first compound 0.02 µM): 1.04 | relative viability ([18]; first compound 0.2 µM): 0.808 | relative viability ([18]; first compound 0.6325 µM): 1.02 | relative viability ([18]; first compound 2 µM): 0.987 | relative viability ([19]; first compound 0.02 µM): 0.813 | relative viability ([19]; first compound 0.2 µM): 0.456 | relative viability ([19]; first compound 0.6325 µM): 0.8 | relative viability ([19]; first compound 2 µM): 0.757 | relative viability ([20]; first compound 0.02 µM): 0.999 | relative viability ([20]; first compound 0.2 µM): 0.854 | relative viability ([20]; first compound 0.6325 µM): 1 | relative viability ([20]; first compound 2 µM): 0.918

From the supplement of paper PMC10307832
